Here are results for 32 compounds from patent publication US12227517B2, “Pyridazinyl-thiazolecarboxamide compound” (Astellas Pharma Inc., priority 2019, dated 2025).

human recombinant DGK ξ, sequence (Q13574 whole entry): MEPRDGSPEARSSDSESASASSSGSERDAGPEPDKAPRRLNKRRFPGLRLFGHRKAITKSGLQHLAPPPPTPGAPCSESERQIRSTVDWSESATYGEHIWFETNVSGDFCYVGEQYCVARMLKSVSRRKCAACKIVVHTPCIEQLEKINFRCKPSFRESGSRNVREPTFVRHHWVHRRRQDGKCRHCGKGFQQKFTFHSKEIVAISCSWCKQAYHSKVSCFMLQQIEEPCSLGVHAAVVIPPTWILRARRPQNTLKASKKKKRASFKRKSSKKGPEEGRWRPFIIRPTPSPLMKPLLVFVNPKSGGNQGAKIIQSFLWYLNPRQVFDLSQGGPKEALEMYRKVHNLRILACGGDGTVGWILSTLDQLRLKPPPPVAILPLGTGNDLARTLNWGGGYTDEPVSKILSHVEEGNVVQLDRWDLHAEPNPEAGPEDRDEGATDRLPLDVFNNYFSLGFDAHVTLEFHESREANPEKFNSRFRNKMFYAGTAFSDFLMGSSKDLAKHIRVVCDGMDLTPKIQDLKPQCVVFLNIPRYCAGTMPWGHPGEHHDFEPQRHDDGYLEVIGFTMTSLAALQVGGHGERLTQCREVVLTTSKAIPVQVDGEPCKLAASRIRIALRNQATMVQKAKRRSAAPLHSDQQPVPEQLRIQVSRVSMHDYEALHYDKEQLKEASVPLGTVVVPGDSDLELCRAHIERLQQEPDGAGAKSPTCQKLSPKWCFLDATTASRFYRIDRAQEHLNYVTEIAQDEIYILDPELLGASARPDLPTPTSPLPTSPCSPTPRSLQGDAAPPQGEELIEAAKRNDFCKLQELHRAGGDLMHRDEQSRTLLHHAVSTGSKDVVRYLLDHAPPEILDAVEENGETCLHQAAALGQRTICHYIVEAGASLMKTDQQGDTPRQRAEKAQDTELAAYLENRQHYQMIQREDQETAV

The experiment addresses human recombinant DGK ξ (Homo sapiens (Human), UniProt Q13574). Description: Evaluation of DGK ξ inhibitory effect (ADP-Glo Kinase Assay). Type of experiment: biochemical. The procedure:
Test Example 1: Evaluation of DGK ξ Inhibitory Effect
The inhibitory effect of a test compound on human recombinant DGK ξ (Carna Biosciences, Inc., 12-410-20N) was examined by the following method in which detection is performed with ADP-Glo™ Kinase Assay (Promega Corporation).
To a 384-well plate (Greiner Bio-One Co., Ltd.), 3 μL of a […] dissolved in an assay buffer (40 mM Tris-HCl pH 7.5, 10 mM MgCl2, 1 mM dithiothreitol (DTT) and 0.1 mg/mL bovine serum albumin (BSA)) (90 ng/mL) was added, and 3 μL of the test compound diluted with the same assay buffer was added so that an intended final concentration was obtained. The mixture was left standing at room temperature for 15 minutes, 3 μL of a substrate (150 μM 1-oleoyl-2-acetyl-sn-glycerol (Sigma-Aldrich Co. LLC.), 480 μM phosphatidylserine (Avanti Polar Lipids, Inc.) and 150 μM UltraPure-ATP (attached to ADP-Glo)) was then added, and the mixture was left standing at room temperature for 30 minutes to react. Thereafter, 3 μL of an ADP-Glo Reagent was added, and the mixture was left standing at room temperature for 40 minutes to stop the enzyme reaction. Further, 6 μL of a Kinase-Detection Reagent was added, the mixture was left standing at room temperature for 30 minutes, and the luminescence was then measured using ARVO X3 (PerkinElmer, Inc.). The half maximal inhibitory concentration (IC50) was calculated by Sigmoid-Emax model non-linear regression analysis, where the signal value in solvent treatment was set to 0% inhibition and the signal value without addition of the DGK ξ enzyme was set to 100% inhibition. […] In the table, Ex represents the number of each Example described below. Also, in the table, compound C (cpd. C) represents the test compound of the Example 199 described in the international publication WO 2008/054702.
For the compound `O=C(Nc1ccc(Oc2ccccc2)c(C(F)(F)F)c1N1CCOC2(CCN(CCO)CC2)C1)c1csc(-c2ccnnc2)n1` [Example 60], the IC50 worked out at 3 nM.

For `CNC[C@H]1CN(c2c(NC(=O)c3csc(-c4ccnnc4)n3)ccc(Oc3ccccc3)c2C(F)(F)F)CCN1C` [Example 6, N-[2-{(3S)-4-methyl-3-[(methylamino)methyl]piperazin-1-yl}-4-phenoxy-3-(trifluoromethyl)phenyl]-2-(pyridazin-4-yl)-1,3-thiazole-4-carboxamide], the 50% inhibitory concentration (IC50) is 3 nM.

Consider `CN(C)C[C@@H]1CCCN(c2c(NC(=O)c3csc(-c4ccnnc4)n3)ccc(Oc3ccccc3)c2C(F)(F)F)C1` [Example 55], for which the IC50 was determined as 99 nM.

Regarding `N[C@H]1CCN2CCN(c3c(NC(=O)c4csc(-c5ccnnc5)n4)ccc(Oc4ccccc4)c3C(F)(F)F)C[C@@H]12` [Example 74], the IC50 stood at 41 nM.

For `Cn1cc(Oc2ccc(NC(=O)c3csc(-c4ccnnc4)n3)c(N3CCC[C@@H](CN)C3)c2C(F)(F)F)cn1` [Example 16], the concentration for half-maximal inhibition (IC50) was 41 nM.

With `NC[C@@H]1CCCN(c2c(NC(=O)c3csc(-c4ccnnc4)n3)ccc(S(=O)(=O)c3ccccc3)c2C(F)(F)F)C1` [Example 66], the 50% inhibitory concentration (IC50) was determined as 32 nM.

On to `CNC[C@@H]1CCCN(c2c(NC(=O)c3csc(-c4ccnnc4)n3)ccc(Oc3ccccc3Cl)c2C(F)(F)F)C1` [Example 36], for which the half-maximal inhibitory concentration (IC50) was 13 nM.

For `CNC[C@@H]1CN(c2c(NC(=O)c3csc(-c4ccnnc4)n3)ccc(Oc3ccccc3)c2C(F)(F)F)CCO1` [Example 26], the IC50 amounted to 46 nM.

In the case of `Cc1ccccc1Oc1ccc(NC(=O)c2csc(-c3ccnnc3)n2)c(N2CCC[C@@H](CN)C2)c1C(F)(F)F` [Example 21], the IC50 came out at 6 nM.

For `NC[C@@H]1CCCN(c2c(NC(=O)c3csc(-c4ccnnc4)n3)ccc(OC3CCC3)c2C(F)(F)F)C1` [Example 14], the IC50 was 13 nM.

Consider `N#Cc1ccccc1Oc1ccc(NC(=O)c2csc(-c3ccnnc3)n2)c(N2CCC[C@@H](CN)C2)c1C(F)(F)F` [Example 38], for which the IC50 was determined as 3 nM.

Turning to `CNC[C@H]1CN(c2c(NC(=O)c3csc(-c4ccnnc4)n3)ccc(Oc3ccccc3)c2C(F)(F)F)CCO1` [Example 29], the IC50 came out at 426 nM.

As for `N[C@H]1CCN2CCN(c3c(NC(=O)c4csc(-c5ccnnc5)n4)ccc(Oc4ccccc4)c3C(F)(F)F)C[C@H]12` [Example 75], the IC50 was 6 nM.

In the case of `CN(C)C[C@@H]1CN(c2c(NC(=O)c3csc(-c4ccnnc4)n3)ccc(Oc3ccccc3)c2C(F)(F)F)CCO1` [Example 56], the IC50 is 29 nM.

For `CNC1(C(N)=O)CCN(c2ccccc2NC(=O)c2csc(-c3ccnnc3)n2)CC1` [cpd. C, reference compound], the IC50 was above 2000 nM.

Consider `NCC[C@@H]1CN(c2c(NC(=O)c3csc(-c4ccnnc4)n3)ccc(Oc3ccccc3)c2C(F)(F)F)CCO1` [Example 30], for which the 50% inhibitory concentration (IC50) was 39 nM.

Consider `Cn1nccc1Oc1ccc(NC(=O)c2csc(-c3ccnnc3)n2)c(N2CCC[C@@H](CN)C2)c1C(F)(F)F` [Example 44], for which the IC50 stood at 19 nM.

For the compound `NC[C@@H]1CCCN(c2c(NC(=O)c3csc(-c4ccnnc4)n3)ccc(Oc3ccccc3F)c2C(F)(F)F)C1` [Example 86], the IC50 came out at 3 nM.

As to `NC[C@@H]1CCCN(c2c(NC(=O)c3csc(-c4ccnnc4)n3)ccc(OC3CC3)c2C(F)(F)F)C1` [Example 13], the IC50 came to 13 nM.

`CN(C)C[C@@H]1CCCN(c2c(NC(=O)c3csc(-c4ccnnc4)n3)cc(F)c(Oc3ccccc3)c2F)C1` [Example 57]: the IC50 was found to be 240 nM.

As for `Cn1ccc(Oc2ccc(NC(=O)c3csc(-c4ccnnc4)n3)c(N3CCC[C@@H](CN)C3)c2C(F)(F)F)n1` [Example 17], the IC50 came out at 13 nM.

For `NC[C@@H]1CCCN(c2c(NC(=O)c3csc(-c4ccnnc4)n3)ccc(N3CCCC3)c2C(F)(F)F)C1` [Example 47], the IC50 is 147 nM.

For `CNC[C@H]1CCCN1c1c(NC(=O)c2csc(-c3ccnnc3)n2)ccc(Oc2ccccc2F)c1C(F)(F)F` [Example 20], the half-maximal inhibitory concentration (IC50) amounted to 44 nM.

As to `COc1c(Oc2ccccc2)ccc(NC(=O)c2csc(-c3ccnnc3)n2)c1N1CCC[C@@H](CN)C1` [Example 68], the half-maximal inhibitory concentration (IC50) stood at 5 nM.

Consider `O=C(Nc1ccc(OC2CC2)c(C(F)(F)F)c1C1=CCN(Cc2cc[nH]n2)CC1)c1csc(-c2ccnnc2)n1` [Example 3], for which the IC50 worked out at 20 nM.

In the case of `O=C(Nc1ccc(Oc2ccccc2F)c(C(F)(F)F)c1N1CCC[C@@H]1CNC1COC1)c1csc(-c2ccnnc2)n1` [Example 63, N-[4-(2-fluorophenoxy)-2-[(2R)-2-{[(oxetan-3-yl)amino]methyl}pyrrolidin-1-yl]-3-(trifluoromethyl)phenyl]-2-(pyridazin-4-yl)-1,3-thiazole-4-carboxamide], the IC50 was 429 nM.

In the case of `NC[C@@H]1CCCN(c2c(NC(=O)c3csc(-c4ccnnc4)n3)ccc(Oc3c(F)cccc3F)c2C(F)(F)F)C1` [Example 22], the IC50 worked out at 5 nM.

As for `CN(C)CC[C@@H]1CN(c2c(NC(=O)c3csc(-c4ccnnc4)n3)ccc(Oc3ccccc3)c2C(F)(F)F)CCO1` [Example 58], the IC50 worked out at 144 nM.

As for `COCCN1CCC2(CCCN(c3c(NC(=O)c4csc(-c5ccnnc5)n4)ccc(Oc4ccccc4)c3C(F)(F)F)C2)CC1` [Example 61], the concentration for half-maximal inhibition (IC50) is 3 nM.

For `CN[C@@H]1CCN2CCN(c3c(NC(=O)c4csc(-c5ccnnc5)n4)ccc(Oc4ccccc4)c3C(F)(F)F)C[C@@H]12` [Example 73], the IC50 was 0.7 nM.

For the compound `NC[C@@H]1CCCN(c2c(NC(=O)c3csc(-c4ccnnc4)n3)ccc(Oc3cccc(Cl)c3)c2C(F)(F)F)C1` [Example 40], the IC50 is 50 nM.

On to `NC[C@@H]1CCCN(c2c(NC(=O)c3csc(-c4ccnnc4)n3)ccc(OC3CCCC3)c2C(F)(F)F)C1` [Example 15], for which the half-maximal inhibitory concentration (IC50) came to 7 nM.
